Laboratory results: ChEMBL document CHEMBL4308832, “Discovery of Allosteric, Potent, Subtype Selective, and Peripherally Restricted TrkA Kinase Inhibitors” (J Med Chem, 2018)

Columns and labels:
in vitro = conditions: dog, MDCK
in vivo [1] = conditions: rat, po, 2 mg/kg
in vivo [2] = conditions: rat, brain, iv, 0.5 mg/kg
physchem = conditions: buffer, pH 7.4
in vivo [3] = conditions: rat, po, 2 mg/kg; remark: listed apart in the source
in vivo [4] = conditions: rat, iv, 0.5 mg/kg
in vivo [5] = conditions: rat, po, 3 mg/kg
in vivo [6] = conditions: rat, po, 3 mg/kg; remark: listed apart in the source
in vivo [7] = conditions: rat, brain, iv, 1 mg/kg
in vivo [8] = conditions: rat, iv, 1 mg/kg

SMILES | Papp A→B (in vitro) | logD (physchem) | further results
NC(=O)c1cc(NC(=O)c2cc(-c3cccc(N)n3)c(Cl)cc2Cl)n(-c2ccccc2)n1 | 11 ×10⁻⁶ cm/s | 2.9 | –
NC(=O)c1cc(NC(=O)c2cc(-c3nc(N)ccc3Cl)ccc2Cl)n(-c2ccccc2)n1 | 11 ×10⁻⁶ cm/s | 3.2 | –
NC(=O)c1cccc(-c2ccc(Cl)c(C(=O)Nc3cc(C(N)=O)nn3-c3ccccc3)c2)n1 | 6.1 ×10⁻⁶ cm/s | 2.3 | –
NC(=O)c1cc(NC(=O)c2cc(-c3ncccc3F)c(F)cc2Cl)n(-c2ccccc2)n1 | 23 ×10⁻⁶ cm/s | 2.7 | –
NC(=O)c1cc(NC(=O)c2cc(-c3cccc(C(F)F)n3)ccc2Cl)n(-c2ccccc2)n1 | 8.5 ×10⁻⁶ cm/s | 3.5 | –
Cc1cc(NC(=O)c2ccc(Cl)cc2Cl)n(-c2ccccc2)n1 | 30 ×10⁻⁶ cm/s | 3.3 | –
CC(=O)Nc1cccc(-c2ccc(Cl)c(C(=O)Nc3cc(C(N)=O)nn3-c3ccccc3)c2)n1 | 10 ×10⁻⁶ cm/s | 2.7 | –
NC(=O)c1cc(NC(=O)c2cc(-c3ncccc3Cl)ccc2Cl)n(-c2ccccc2)n1 | 14 ×10⁻⁶ cm/s | 2.8 | bioavailability (in vivo [5]): 85%; Tmax (in vivo [6]): 0.9 h; Kp uu at 4 h (in vivo [7]): 0.076; Vd (in vivo [8]): 1.1 L/kg
NC(=O)c1cc(NC(=O)c2cc(-c3ncccc3F)ccc2Cl)n(-c2ccccc2)n1 | 19 ×10⁻⁶ cm/s | 2.6 | bioavailability (in vivo [5]): 100%; Tmax (in vivo [6]): 4 h; Kp uu at 4 h (in vivo [7]): 0.1; Vd (in vivo [8]): 0.46 L/kg

More lines, main results first:

Papp A→B (in vitro) | logD (physchem) | SMILES | further results
12 ×10⁻⁶ cm/s | 3.3 | CC(C)(O)CNC(=O)c1cc(NC(=O)c2cc(-c3ncccc3F)c(Cl)cc2Cl)n(-c2ccccc2)n1 | bioavailability (in vivo [1]): 46%; Kp uu at 4 h (in vivo [2]): 0.015; Tmax (in vivo [3]): 3 h; Vd (in vivo [4]): 1.6 L/kg
11 ×10⁻⁶ cm/s | 3 | O=C(NC1COC1)c1cc(NC(=O)c2cc(-c3ccccn3)c(Cl)cc2Cl)n(-c2ccccc2)n1 | –
8.5 ×10⁻⁶ cm/s | 3 | O=C(NCCO)c1cc(NC(=O)c2cc(-c3ccccn3)c(C(F)(F)F)cc2Cl)n(-c2ccccc2)n1 | –
0.72 ×10⁻⁶ cm/s | 0.94 | NCCNC(=O)c1cc(NC(=O)c2cc(-c3ccccn3)c(Cl)cc2Cl)n(-c2ccccc2)n1 | –
13 ×10⁻⁶ cm/s | 2.4 | COc1cc(Cl)c(C(=O)Nc2cc(C(N)=O)nn2-c2ccccc2)cc1-c1ccccn1 | –
17 ×10⁻⁶ cm/s | 3 | NC(=O)c1cc(NC(=O)c2cc(-c3ccccn3)c(Cl)cc2Cl)n(-c2ccccc2)n1 | –
13 ×10⁻⁶ cm/s | 2.8 | O=C(NCCO)c1cc(NC(=O)c2cc(-c3ncccc3F)c(Cl)cc2Cl)n(-c2ccccc2)n1 | –
17 ×10⁻⁶ cm/s | 3.1 | CC(C)(O)CNC(=O)c1cc(NC(=O)c2cc(-c3ncccc3F)c(F)cc2Cl)n(-c2ccccc2)n1 | –
10 ×10⁻⁶ cm/s | 2.7 | NC(=O)c1cc(NC(=O)c2cc(-c3ccccn3)c(F)cc2Cl)n(-c2ccccc2)n1 | –
– | 3.1 | NC(=O)c1cc(NC(=O)c2cc(-c3ccccn3)c(C3CC3)cc2Cl)n(-c2ccccc2)n1 | –
13 ×10⁻⁶ cm/s | 2.7 | NC(=O)c1cc(NC(=O)c2cc(-c3ccccn3)c(OC(F)F)cc2Cl)n(-c2ccccc2)n1 | –
12 ×10⁻⁶ cm/s | 2.6 | Cc1cc(Cl)c(C(=O)Nc2cc(C(N)=O)nn2-c2ccccc2)cc1-c1ccccn1 | –
12 ×10⁻⁶ cm/s | 2.8 | O=C(NCCO)c1cc(NC(=O)c2cc(-c3ccccn3)c(Cl)cc2Cl)n(-c2ccccc2)n1 | –
